In publication PMC9182146, “BSA Interaction, Molecular Docking, and Antibacterial Activity of Zinc(II) Complexes Containing the Sterically Demanding Biomimetic N3S2 Ligand: The Effect of Structure Flexibility” (Molecules, 2022):
Where two headings read alike, the source gives them in different places.

Columns and labels:
BSA [1] = target: T1, BSA (Bos taurus, UniProt P02769); test: Cyclic voltammetry of BSA with zinc complexes; details: for BSA cathodic peak potential after addition of complex: BSA alone approximately −0.39 V, water, Ag/AgCl reference; for kR/kO binding constants: reduced over oxidized form
Experimental: Cyclic voltammograms of BSA in water in the presence and absence of zinc complexes were used for a voltammetric study.
The optical absorptions were performed using a 1.0 cm quartz cell on a JASCO spectrophotometer (V-780). Fluorescence measurements were carried out using the JASCO spectrofluorometer (FP-8300 model). The excitation wavelength was set at 280 nm, and the wavelength of the emission was set to 285–600 nm. Picosecond fluorescence decay profiles were measured using the FluoTime 300 (Pico Quant, Berlin, Germany) by the single-photon counting method. Lifetimes were evaluated using software supplied with the instrument. The time-resolved fluorescence instrumentation was the same as for steady-state experiments. Cyclic voltammograms were carried out on a Gamry setup with a carbon working electrode and a platinum wire as a counter electrode. A silver–silver chloride (Ag/AgCl) electrode was used as a reference electrode. All tests were carried out in oxygen-free solutions, and sodium sulfate was used as an electrolyte support. Dynamic light scattering (DLS) was used to determine the distribution profile of the particle size in the solution.

[2] = Dynamic light scattering size distribution of self-assembled adducts in water; assay type: physicochemical; details: DLS, room temperature
BSA [3] = target: T1, BSA; details: T = 298 K
Description: The Förster resonance energy transfer (FRET) mechanism allows the excitation energy to be passed from the donor to the acceptor without photon emission from the former molecular system. According to the FRET principle, the rate of energy transfer depends on the distance between the donor and the acceptor, the orientation of the donor and the acceptor dipoles, and the degree of overlap between the donor emission spectrum and the acceptor absorption spectrum. Energy transfer efficiency (E) can be used to evaluate the distance (r) between zinc complexes (acceptor) and BSA (donor) in protein using Equation (8), (8) E=1−F/F0=R06/R06+r^6 where F and F0 are the fluorescence intensity of BSA in the presence and absence of the acceptor, respectively, r is the distance between the acceptor and donor, R0 is the critical distance for 50% energy transfer and can be calculated using Equation (9), (9) R06=8.8×10^−25K^2N^−4∅J where the spatial orientation factor of the dipole K^2 = 2/3, the refractive index of the medium (water) N = 1.333, and the fluorescence quantum yield of the donor BSA ∅ = 0.15 [10, 38]. The spectral overlap integral (J), calculated from the overlap of the acceptor UV absorption spectra with the donor fluorescence emission spectra, is given using Equation (10). (10) J=∫0∞Fλε λλ^4dλ/∫0∞Fλdλ

BSA [4] = target: T1, BSA; details: for ΔHº / ΔSº: 288–308 K
Experimental: The association constants and number of binding sites between the zinc complexes and BSA were calculated according to Equation (4). (4) logF0−F/F=logKA+nlogQ
In general, ΔGº reflects the spontaneity of the reaction, whereas ΔHº and ΔSº are the main quantities for determining the binding force. The thermodynamic parameters of ΔHº and ΔSº were calculated using Equation (5), and the Gibbs free energy was estimated from Equation (6). lnKA = −ΔHº/RT + ΔSº/R(5) ΔGº = ΔHº − TΔSº = −RT ln KA(6)

BSA [5] = target: T1, BSA; test: Fluorescence quenching of BSA (Stern–Volmer); details: for KSV (called binding constants in conclusions) / Kq: temperature not stated
Staphylococcus aureus = test: MIC and MBC antibacterial test; assay type: cell-based; details: 30 °C; for MIC: 24 h
Experimental: (§1) All complexes were tested for antibacterial activity against both […] bacteria. The antibacterial function of complexes, represented as the diameter of the growth-inhibition region in millimeters, is shown in Figure 8. The minimum inhibitory concentration (MIC) and minimum bactericidal concentration (MBC) of complexes needed to inhibit bacterial growth are presented in Table 4. The MBC is identified by the determination of the lowest concentration of antibacterial agents that reduces the viability of the initial bacterial inoculum by a predetermined reduction of 99.9%. The value agreed on in two or more occasions was adopted as the MIC or MBC strain. Chloramphenicol was used for control purposes. From the inhibition zone, as well as the MIC and MBC data, one can conclude the following: Firstly, both complexes were active, but the activity was less than that for the normal drug (chloramphenicol).
(§2) The synthesized complexes were tested against both […] bacteria for antibacterial activity. The bacteria were incubated by shaking in the thermostat at 30 °C overnight. At this stage, a loop of each culture was placed in 10 mL of 10-fold diluted broth, and the test bacteria cultures containing 10^5 mL^−1 cells were used for antimicrobial testing. […] MIC and MBC as recommended by the NCCLS (National Committee for Clinical Laboratory Standards, Albany, NY, USA). After 24 h of incubation, the MIC was read at 30 °C equivalent to the concentration of the tube without visible growth to measure the effect of decreased antibiotic/antiseptic concentrations over a defined period of time on the inhibition of microbial population growth. These assessments may be quite useful during the R&D phase of the product to determine the appropriate concentrations required in the final product, since the concentration of the drug required to produce the effect is normally several hundreds to thousands of times lower than the concentration found in the completed dosage form.

Escherichia coli = test: MIC and MBC antibacterial test; assay type: cell-based; details: 30 °C
Experimental: as §1, §2

Enterococcus = test: MIC and MBC antibacterial test; assay type: cell-based; details: 30 °C; for MIC: 24 h
Experimental: as §1, §2

Pseudomonas aeruginosa = test: MIC and MBC antibacterial test; assay type: cell-based; details: 30 °C; for MIC: 24 h
Experimental: as §1, §2

T1 sequence (P02769 25-607): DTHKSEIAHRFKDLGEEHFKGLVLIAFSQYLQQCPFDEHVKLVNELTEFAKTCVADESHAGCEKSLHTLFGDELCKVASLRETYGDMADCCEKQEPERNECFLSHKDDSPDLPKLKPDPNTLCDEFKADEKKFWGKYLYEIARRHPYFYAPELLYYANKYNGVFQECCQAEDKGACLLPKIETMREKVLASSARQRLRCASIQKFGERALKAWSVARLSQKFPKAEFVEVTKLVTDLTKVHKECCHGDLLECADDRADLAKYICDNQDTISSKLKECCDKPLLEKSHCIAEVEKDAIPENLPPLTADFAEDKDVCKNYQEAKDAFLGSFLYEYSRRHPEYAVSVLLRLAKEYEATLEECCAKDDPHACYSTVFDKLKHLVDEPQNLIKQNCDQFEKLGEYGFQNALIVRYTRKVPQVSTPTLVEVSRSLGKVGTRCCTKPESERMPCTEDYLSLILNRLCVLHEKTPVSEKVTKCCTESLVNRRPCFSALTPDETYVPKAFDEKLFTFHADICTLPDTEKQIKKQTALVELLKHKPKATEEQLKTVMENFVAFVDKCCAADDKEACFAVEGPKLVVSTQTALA

| Structure (SMILES) | BSA cathodic peak potential after addition of complex (BSA [1]) [V] | kR/kO binding constants (BSA [1]) | mean size of self-assembled adduct with BSA [2] [nm] | J (spectral overlap integral) (BSA [3]) | R0 (critical distance for 50% energy transfer) (BSA [3]) [nm] | r (distance between acceptor and donor) (BSA [3]) [nm] | ∫F donor λ Δλ (BSA [3]) | ΔHº (BSA [4]) [kcal/mol] | ΔSº (BSA [4]) [J mol^−1 K^−1] | KA (association constant) (BSA [4]; T = 288 K) | n (number of binding sites) (BSA [4]; T = 288 K) | ΔGº (BSA [4]; T = 288 K) [kcal/mol] | KA (association constant) (BSA [4]; T = 298 K) | n (number of binding sites) (BSA [4]; T = 298 K) | ΔGº (BSA [4]; T = 298 K) [kcal/mol] | KA (association constant) (BSA [4]; T = 308 K) | n (number of binding sites) (BSA [4]; T = 308 K) | ΔGº (BSA [4]; T = 308 K) [kcal/mol] | n (number of binding sites) (BSA [4]; all temperatures) | Kq (quenching rate constant) (BSA [5]; T = 288 K) | other results |
| --- | --- | --- | --- | --- | --- | --- | --- | --- | --- | --- | --- | --- | --- | --- | --- | --- | --- | --- | --- | --- | --- |
| CC(=Nc1cc(C(C)(C)C)cc(C(C)(C)C)c1[S-])c1cccc(C(C)=Nc2cc(C(C)(C)C)cc(C(C)(C)C)c2[S-])n1.[Zn+2] [DBZ, [Zn(py^tBuN2Me2S2)]] | −0.55 | 0.43 | 110 | 9.0 10^−13 L mol^−1 cm^3 | 2.51 | 3.21 | 79.6 | 10 ± 2.39 | 261 ± 35 | 9.9 10^5 M^−1 | 1.12 | -7.93 ± 0.019 | 22.8 10^5 M^−1 | 1.32 | -8.56 ± 0.096 | 30.7 10^5 M^−1 | 1.45 | -9.18 ± 0.19 | ~1 | 4.15 10^14 M^−1 s^−1 | Ksv (Stern–Volmer quenching constant) (BSA [5]; T = 288 K): 19.0 10^5 M^−1; Kq (quenching rate constant) (BSA [5]; T = 298 K): 5.40 10^14 M^−1 s^−1; Ksv (Stern–Volmer quenching constant) (BSA [5]; T = 298 K): 24.7 10^5 M^−1; Kq (quenching rate constant) (BSA [5]; T = 318 K): 5.97 10^14 M^−1 s^−1; Ksv (Stern–Volmer quenching constant) (BSA [5]; T = 318 K): 27.3 10^5 M^−1; DBZ binds to BSA more than DBZH4 (BSA [5]; ratio of KSV, DBZ over DBZH4): ~30 fold; DBZ binds stronger than DBZH4 (BSA [5]; ratio of binding constants, conclusions): about 35 times; KSV (called binding constants in conclusions) (BSA [5]): 2.47e+06 M⁻¹; Kq (BSA [5]): 5.4e+14 M⁻¹ s⁻¹; MBC (Staphylococcus aureus): 25.0 µg/mL; MIC (Staphylococcus aureus): 12.5 µg/mL; MBC (Escherichia coli): 50.0 µg/mL; MIC (Escherichia coli; 24 h): 25.0 µg/mL; MBC (Enterococcus): 50.0 µg/mL; MIC (Enterococcus): 25.0 µg/mL; MBC (Pseudomonas aeruginosa): 25.0 µg/mL; MIC (Pseudomonas aeruginosa): 12.5 µg/mL |
| CC(Nc1cc(C(C)(C)C)cc(C(C)(C)C)c1[S-])c1cccc(C(C)Nc2cc(C(C)(C)C)cc(C(C)(C)C)c2[S-])n1.[Zn+2] (centres unmarked) [DBZH4, [Zn(py^tBuN2H4Me2S2)]] | −0.57 | 0.48 | 339 | 5.4 10^−13 L mol^−1 cm^3 | 2.31 | 3.67 | 90.0 | 15.5 ± 0.48 | 304 ± 6 | 0.13 10^5 M^−1 | 1.22 | -5.4 ± 0.072 | 0.31 10^5 M^−1 | 1.40 | -6.12 ± 0.048 | 0.76 10^5 M^−1 | 1.42 | -6.84 ± 0.048 | ~1 | 0.150 10^14 M^−1 s^−1 | size range of self-assembled adduct with BSA [2]: 100–1000 nm; Ksv (Stern–Volmer quenching constant) (BSA [5]; T = 288 K): 0.69 10^5 M^−1; Kq (quenching rate constant) (BSA [5]; T = 298 K): 0.153 10^14 M^−1 s^−1; Ksv (Stern–Volmer quenching constant) (BSA [5]; T = 298 K): 0.70 10^5 M^−1; Kq (quenching rate constant) (BSA [5]; T = 318 K): 0.155 10^14 M^−1 s^−1; Ksv (Stern–Volmer quenching constant) (BSA [5]; T = 318 K): 0.71 10^5 M^−1; KSV (called binding constants in conclusions) (BSA [5]): 70000 M⁻¹; Kq (BSA [5]): 1.5e+13 M⁻¹ s⁻¹; MBC (Staphylococcus aureus): 30.0 µg/mL; MIC (Staphylococcus aureus): 15.0 µg/mL; MBC (Enterococcus): 60.0 µg/mL; MIC (Enterococcus): 30.0 µg/mL; MBC (Pseudomonas aeruginosa): 30.0 µg/mL; MIC (Pseudomonas aeruginosa): 15.0 µg/mL |
